According to US20250230184A1, “COMPOUND, PHARMACEUTICAL COMPOSITION, KIT FOR CAPPED RNA TRANSCRIPT, AND METHOD FOR IN VITRO” (Industrial Technology Research Institute, priority 2023, published 2025):

Assays:
[1] = tested on: HEK293 (RIG-I+)-IFNβ-fLuc cells; experiment: Cell immunogenicity evaluation (luciferase reporter); assay type: cell-based; details: luciferase mRNA capped with the cap analog, 200 ng per well, 5 hours, compared with Jena-ARCA
Protocol: HEK293 (RIG-I^+)-IFNβ-fLuc cells were seeded at 1×10^4 cells per well in a 96-well culture plate and cultured for 24 hours for attachment. Each well was treated with transfection reagent (catalog #Lipofectamine MessengerMax, commercially available from Thermo Fisher, 0.15 μL per well) and samples (200 ng per well). The cells were incubated in a 37° C. incubator with 5% carbon dioxide for 5 hours. Next, 100 µL of signal-activating fluorescence detection reagent (One-Glo Luciferase) was added to each well and incubated at room temperature for 5 minutes to measure luciferase activity. Next, 180 μL of the reaction mixture was pipetted, and the fluorescence values were recorded using a microplate reader (GloMax Microplate Reader).

[2] = tested on: HEK293 cells; experiment: Transfection efficiency evaluation (luciferase activity); assay type: cell-based; details: luciferase mRNA capped with the cap analog, 50 ng per well, 5 hours, compared with Jena-ARCA
Protocol: Nuclease-free water was added to the lyophilized carrier RNA to obtain an RNA stock solution (with concentration of 2 μg/L). Next, deionized water (0.1 mL) and RNA stock solution (10 μL) were mixed with cap analogs (compound (3), compounds (25), (33) to (35), and Jena-ARCA capping analog (number #NU-855L, commercially available from Jena Bioscience)) individually to obtain the samples.
HEK293 cells were seeded at 4×10^4 cells per well in a 96-well culture plate and cultured for 24 hours for attachment. Next, each well was treated with transfection reagent (catalog #Lipofectamine MessengerMax, commercially available from Thermo Fisher, 0.3 μL per well) and samples (50 ng per well). The cells were incubated in a 37° C. incubator with 5% carbon dioxide for 5 hours. Subsequently, 100 μL of signal-activating fluorescence detection reagent (One-Glo Luciferase) was added to each well and incubated at room temperature for 5 minutes to measure luciferase activity. Then, 100 μL of the reaction mixture was pipetted and the fluorescence values were recorded using a microplate reader (GloMax Microplate Reader).

[3] = tested on: carrier RNA; experiment: Capping efficiency evaluation (2) using IP-RP-UPLC (1); details: UV260
Protocol: Nuclease-free water was added into the lyophilized carrier RNA to obtain an RNA stock solution (with a concentration of 2 μg/L). Next, deionized water (0.1 mL) and RNA stock solution (10 μL) were mixed with cap analogs (compound (3) and Jena-ARCA cap analog (product number #NU-855L, commercially available from Jena Bioscience)) individually to obtain the samples.
Next, the sample (10 μL) was injected into a column to perform ion-pair reverse-phase ultra-performance liquid chromatography (IP-RP UPLC) using the solution gradient outlined in Table 6 (45 minutes). The absorbance at the UV260 wavelength was monitored. The column used was an oligonucleotide column (Acquity Premier Oligonucleotide C18, manufactured and sold by Waters Corp). A water-based buffer solution (triethylamine acetate buffer, pH 7.0, concentration 100 mM) was used as Solution A, and an acetonitrile (ACN)-based buffer solution (composed of Solution A and ACN in a 3:1 volume ratio) was used as Solution B.

[4] = tested on: carrier RNA; experiment: Capping efficiency evaluation (1) using anti-cap antibody; details: Anti-7-methylguanosine (m7G)-Cap mAb, compared with commercially available ARCA
Protocol: Nuclease-free water was added into the lyophilized carrier RNA to obtain an RNA stock solution (with a concentration of 2 μg/L). Next, the RNA stock solution with various cap analogs (Compound (3) and Jena-ARCA cap analog, with trade number #NU-855L, commercially available from Jena Bioscience) was heated individually at 80° C. for 2 minutes, and then cooled at 0° C. for 5 minutes. Next, the result was placed on a nitrocellulose membrane and exposed to UV illumination to obtain a crosslinked RNA sample.
Then, 2.5% skim milk solution was added to block the nitrocellulose membrane with crosslinked RNA sampleat room temperature for 30 minutes. Thereafter, the primary antibody (Anti-7-methylguanosine (m7G)-Cap mAb) was diluted with the 2.5% skim milk solution and incubated at room temperature for 1 hour. Next, the sample was washed three times with TBST buffer (10 minutes each time). The result was reacted with chemiluminescent reagent (Femto) for 1-3 minutes. Finally, an image analysis of the result was performed via a chemiluminescent imaging system (Fujifilm LAS 4000).

[5] = molecular target: T7 enzyme (Escherichia phage T7, UniProt P00573); experiment: Evaluation of mRNA yield by in vitro transcription (IVT) with cap analogs; assay type: biochemical; details: input DNA 5 μg
Protocol: mRNA was produced using in vitro transcription (IVT) technology with cap analogs of Compound (25), (26) and (33) to (35) of the disclosure, as well as the TriLink CleanCap cap analog (product number #N-7113). First, the DNA template plasmid required for IVT was prepared, followed by an enzymatic reaction using T7 enzyme to synthesize mRNA.

[6] = tested on: 40-nt mRNAs; experiment: Capping efficiency evaluation (3) using IP-RP-UPLC, 40-nt mRNAs from IVT; assay type: biochemical; details: 40-nt mRNAs by IVT with T7 enzyme, UV 260 nm
Protocol: mRNA was produced using in vitro transcription (IVT) technology with cap analogs of Compound (25), (33) to (35) of the disclosure herein, as well as the TriLink CleanCap cap analog (product number #N-7113). The DNA template used in this process consisted of 40-nucleotide (nt) fragments, and mRNA was synthesized through an enzymatic reaction using T7 enzyme to produce 40-nt mRNAs.
Nuclease-free water was added to the lyophilized carrier RNA to obtain an RNA stock solution (with concentration of 2 μg/L). Deionized water (0.1 mL) and RNA stock solution (10 μL) were then mixed with the 40-nt mRNAs obtained by aforementioned cap analogs to obtain the samples.
Next, 10 μL of each sample was injected into a column and analyzed using ion-pair reversed-phase ultra-performance liquid chromatography (IP-RP UPLC) (45 minutes) according to the solution gradient listed in Table 7. The absorbance value of UV 260 nm was monitored, and the capping efficiency (%) was evaluated based on the obtained results, as shown in Table 8. The column used for the analysis was an oligonucleotide column (Acquity Premier Oligonucleotide C18, manufactured and sold by Waters Corp). A water-based buffer solution (triethylammonium acetate buffer, pH 7.0, concentration 100 mM) was used as Solution A, while an acetonitrile (ACN)-based buffer solution (a mixture of Solution A and acetonitrile in a 3:1 volume ratio) was used as Solution B.

Chain of T7 enzyme (P00573 whole entry): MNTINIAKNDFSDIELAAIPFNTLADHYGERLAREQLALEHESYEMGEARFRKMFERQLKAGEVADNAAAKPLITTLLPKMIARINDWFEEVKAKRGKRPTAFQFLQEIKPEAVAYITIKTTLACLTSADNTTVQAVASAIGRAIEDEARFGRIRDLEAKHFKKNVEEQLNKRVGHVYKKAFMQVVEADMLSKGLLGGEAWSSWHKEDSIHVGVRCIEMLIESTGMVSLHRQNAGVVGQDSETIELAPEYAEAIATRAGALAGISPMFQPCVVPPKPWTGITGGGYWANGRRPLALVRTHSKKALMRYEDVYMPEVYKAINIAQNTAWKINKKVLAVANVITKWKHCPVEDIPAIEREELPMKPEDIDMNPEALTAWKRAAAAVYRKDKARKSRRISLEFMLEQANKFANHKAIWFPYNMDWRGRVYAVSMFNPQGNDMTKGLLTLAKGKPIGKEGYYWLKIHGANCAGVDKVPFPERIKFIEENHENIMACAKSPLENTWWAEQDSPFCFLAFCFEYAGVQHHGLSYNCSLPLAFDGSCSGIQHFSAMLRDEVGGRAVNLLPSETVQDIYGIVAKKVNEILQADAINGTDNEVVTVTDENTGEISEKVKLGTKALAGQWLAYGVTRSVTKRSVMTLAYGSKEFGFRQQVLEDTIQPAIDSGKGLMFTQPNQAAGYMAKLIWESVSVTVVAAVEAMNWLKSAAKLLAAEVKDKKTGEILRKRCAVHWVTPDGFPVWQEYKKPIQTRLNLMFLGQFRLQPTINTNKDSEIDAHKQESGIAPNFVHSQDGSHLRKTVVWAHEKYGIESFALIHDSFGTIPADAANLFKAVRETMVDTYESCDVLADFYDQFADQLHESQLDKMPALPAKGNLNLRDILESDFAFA

Compound	immune response (luciferase activity) [1]	nucleic acid translation and protein expression (luciferase activity) [2]	capping efficiency [3]	capping capability (chemiluminescent image analysis) [4]	mRNA [5]	Capping efficiency (%) [6]
COC1[C@@H]2OC[C@]1(COP(=O)(O)OP(=O)(O)OP(=O)(O)OC[C@H]1O[C@@H](n3cnc4c(=O)[nH]c(N)nc43)[C@@H](O)C1O)O[C@H]2n1c[n+](C)c2c(=O)[nH]c(N)nc21 (stereo partly shown) [Compound (3)]	lower immune response	superior nucleic acid translation and protein expression	approximately 60.8%	comparable to that of commercially available ARCA	–	–
CO[C@@H]1C(O)[C@H](n2c[n+](C)c3c(=O)[nH]c(N)nc32)O[C@@H]1COP(=O)(O)OP(=O)(O)OP(=O)(O)OC[C@]12CN(C)[C@@H](C1OP(=O)(O)OC[C@H]1O[C@@H](n3cnc4c(=O)[nH]c(N)nc43)[C@@H](O)C1O)[C@H](n1cnc3c(N)ncnc31)O2 (stereo partly shown) [Compound (25)]	–	superior nucleic acid translation and protein expression	–	–	167 µg	71.3%
COC1[C@@H](COP(=O)(O)OP(=O)(O)OP(=O)(O)OC[C@]23CN(S(C)(=O)=O)[C@@H](C2OP(=O)(O)OC[C@H]2O[C@@H](n4cnc5c(=O)[nH]c(N)nc54)[C@@H](O)C2O)[C@H](n2cnc4c(N)ncnc42)O3)O[C@@H](n2c[n+](C)c3c(=O)[nH]c(N)nc32)[C@H]1O (stereo partly shown) [Compound (26)]	–	–	–	–	95 µg	–
CO[C@@H]1C2OC[C@]1(COP(=O)(O)OP(=O)(O)OP(=O)(O)OC[C@H]1O[C@@H](n3cnc4c(N)ncnc43)[C@@H](OC)C1OP(=O)(O)OC[C@H]1O[C@@H](n3cnc4c(=O)[nH]c(N)nc43)[C@@H](O)C1O)O[C@H]2n1c[n+](C)c2c(=O)[nH]c(N)nc21 (stereo partly shown) [Compound (33)]	–	–	–	–	134 µg	100%
CNc1ncnc2c1ncn2[C@@H]1O[C@H](COP(=O)(O)OP(=O)(O)OP(=O)(O)OC[C@@]23CN(S(C)(=O)=O)C([C@H](n4c[n+](C)c5c(=O)[nH]c(N)nc54)O2)[C@H]3OC)C(OP(=O)(O)OC[C@H]2O[C@@H](n3cnc4c(=O)[nH]c(N)nc43)[C@@H](O)C2O)[C@@H]1OC (stereo partly shown) [Compound (35)]	–	–	–	–	138 µg	81.4%
CO[C@H]1[C@@H](O)[C@H](n2c[n+](C)c3c(=O)[nH]c(N)nc32)O[C@@H]1COP(=O)(O)OP(=O)(O)OP(=O)(O)OC[C@H]1O[C@@H](n2cnc3c(=O)[nH]c(N)nc32)[C@H](O)[C@@H]1O [Jena-ARCA, reference compound]	–	–	approximately 63%	–	–	–
